From ChEMBL document CHEMBL5143734, “Seco-Lupane Triterpene Derivatives Induce Ferroptosis through GPX4/ACSL4 Axis and Target Cyclin D1 to Block the Cell Cycle” (J Med Chem, 2022)
pIC50: −log10 of the molar value.

How the values were obtained:
Assay type in all cases: functional, cell-based
A549 = test: Cytotoxicity against human A549 cells assessed as reduction in cell viability by CCK-8 assay
HepG2 = test: Cytotoxicity against human HepG2 cells assessed as reduction in cell viability by CCK-8 assay
PC-3M = test: Cytotoxicity against human PC-3M cells assessed as reduction in cell viability by CCK-8 assay
PANC-1 = test: Cytotoxicity against human PANC-1 cells assessed as reduction in cell viability by CCK-8 assay
MCF7 = test: Cytotoxicity against human MCF7 cells assessed as reduction in cell viability by CCK-8 assay

Structure (SMILES)	pIC50 (A549)	pIC50 (HepG2)	pIC50 (PC-3M)	pIC50 (PANC-1)	pIC50 (MCF7)
C=C(C)[C@@H]1CC[C@]2(C(=O)OCCCCCCn3ccnc3C)CC[C@]3(C)[C@H](C[C@@H](O)[C@@H]4[C@@]5(C)C(CC(=O)OC)OC(C)(C)C5CC[C@]43C)[C@@H]12 (stereo not given in full)	4.59	4.92	4.68	4.73	4.52
C=C(C)[C@@H]1CC[C@]2(C(=O)OCCCCCCn3cc(CCN)c4ccccc43)CC[C@]3(C)[C@H](C[C@@H](O)[C@@H]4[C@@]5(C)C(CC(=O)OC)OC(C)(C)C5CC[C@]43C)[C@@H]12 (stereo not given in full)	5.22	5.72	5.40	5.15	4.61
C=C(C)[C@@H]1CC[C@]2(C(=O)OCCCn3ccnc3CC)CC[C@]3(C)[C@H](C[C@@H](O)[C@@H]4[C@@]5(C)C(CC(=O)OC)OC(C)(C)C5CC[C@]43C)[C@@H]12 (stereo not given in full)	4.56	4.72	4.60	4.32	4.18
C=C(C)[C@@H]1CC[C@]2(C(=O)OCCCCCCCCCCBr)CC[C@]3(C)[C@H](C[C@H]4OC(=O)C[C@@H](O)[C@]5(C)[C@@H]4[C@@]3(C)CC[C@H]5C(=C)C)[C@@H]12	4.66	4.96	4.76	4.64	4.27
C=C(C)[C@@H]1CC[C@]2(C(=O)OCCCCCCCCCCn3ccnc3CC)CC[C@]3(C)[C@H](C[C@@H](O)[C@@H]4[C@@]5(C)C(CC(=O)OC)OC(C)(C)C5CC[C@]43C)[C@@H]12 (stereo not given in full)	4.73	5.16	4.94	4.97	4.73
C=C(C)[C@@H]1CC[C@]2(C(=O)OCCCn3cncn3)CC[C@]3(C)[C@H](C[C@@H](O)[C@@H]4[C@@]5(C)C(CC(=O)OC)OC(C)(C)C5CC[C@]43C)[C@@H]12 (stereo not given in full)	4.50	4.53	4.36	4.24	4.09
C=C(C)[C@@H]1CC[C@]2(C(=O)OCCCCCCCCCCBr)CC[C@]3(C)[C@H](C[C@@H](O)[C@@H]4[C@@]5(C)C(CC(=O)OC)OC(C)(C)C5CC[C@]43C)[C@@H]12 (stereo not given in full)	4.46	4.82	4.78	4.82	4.05
C=C(C)[C@@H]1CC[C@]2(C(=O)OCCCCn3cc(CCN)c4ccccc43)CC[C@]3(C)[C@H](C[C@@H](O)[C@@H]4[C@@]5(C)C(CC(=O)OC)OC(C)(C)C5CC[C@]43C)[C@@H]12 (stereo not given in full)	5.15	5.77	5.25	5.19	5.20
C=C(C)[C@@H]1CC[C@]2(C(=O)OCCCCCCn3ccnc3CC)CC[C@]3(C)[C@H](C[C@H]4OC(=O)C[C@@H](O)[C@]5(C)[C@@H]4[C@@]3(C)CC[C@H]5C(=C)C)[C@@H]12	4.84	5.44	4.89	4.76	4.31
C=C(C)[C@@H]1CC[C@]2(C(=O)OCCCn3cc(CCN)c4ccccc43)CC[C@]3(C)[C@H](C[C@H]4OC(=O)C[C@@H](O)[C@]5(C)[C@@H]4[C@@]3(C)CC[C@H]5C(=C)C)[C@@H]12	5.14	5.75	5.20	5.02	4.93
C=C(C)[C@@H]1CC[C@]2(C(=O)OCCCCCn3ccnc3CC)CC[C@]3(C)[C@H](C[C@@H](O)[C@@H]4[C@@]5(C)C(CC(=O)OC)OC(C)(C)C5CC[C@]43C)[C@@H]12 (stereo not given in full)	4.59	4.85	4.62	4.57	4.34
C=C(C)[C@@H]1CC[C@]2(C(=O)OCCCn3cnc(C)c3)CC[C@]3(C)[C@H](C[C@H]4OC(=O)C[C@@H](O)[C@]5(C)[C@@H]4[C@@]3(C)CC[C@H]5C(=C)C)[C@@H]12	4.40	4.45	4.73	4.08	4.31
C=C(C)[C@@H]1CC[C@]2(C(=O)OCCCn3cnc(C)c3)CC[C@]3(C)[C@H](C[C@@H](O)[C@@H]4[C@@]5(C)C(CC(=O)OC)OC(C)(C)C5CC[C@]43C)[C@@H]12 (stereo not given in full)	4.50	4.67	4.51	4.31	4.14
C=C(C)[C@@H]1CC[C@]2(C(=O)OCCCCCn3cc(CCN)c4ccccc43)CC[C@]3(C)[C@H](C[C@@H](O)[C@@H]4[C@@]5(C)C(CC(=O)OC)OC(C)(C)C5CC[C@]43C)[C@@H]12 (stereo not given in full)	5.18	5.77	5.41	5.24	4.74
C=C(C)[C@@H]1CC[C@]2(C(=O)OCCCn3cncn3)CC[C@]3(C)[C@H](C[C@H]4OC(=O)C[C@@H](O)[C@]5(C)[C@@H]4[C@@]3(C)CC[C@H]5C(=C)C)[C@@H]12	4.35	< 3.70	4.47	3.85	4.29
C=C(C)[C@@H]1CC[C@]2(C(=O)OCCCCn3ccnc3CC)CC[C@]3(C)[C@H](C[C@@H](O)[C@@H]4[C@@]5(C)C(CC(=O)OC)OC(C)(C)C5CC[C@]43C)[C@@H]12 (stereo not given in full)	4.54	4.81	4.59	4.50	4.39
C=C(C)[C@@H]1CC[C@]2(C(=O)OCCCCCBr)CC[C@]3(C)[C@H](C[C@@H](O)[C@@H]4[C@@]5(C)C(CC(=O)OC)OC(C)(C)C5CC[C@]43C)[C@@H]12 (stereo not given in full)	4.39	4.56	4.36	4.26	4.10
C=C(C)[C@@H]1CC[C@]2(C(=O)OCCCCCCn3cc(CCN)c4ccccc43)CC[C@]3(C)[C@H](C[C@H]4OC(=O)C[C@@H](O)[C@]5(C)[C@@H]4[C@@]3(C)CC[C@H]5C(=C)C)[C@@H]12	5.19	5.99	5.22	5.15	5.23
C=C(C)[C@@H]1CC[C@]2(C(=O)OCCCCCCCCCCn3ccnc3)CC[C@]3(C)[C@H](C[C@@H](O)[C@@H]4[C@@]5(C)C(CC(=O)OC)OC(C)(C)C5CC[C@]43C)[C@@H]12 (stereo not given in full)	4.65	5.17	4.85	4.85	4.44
C=C(C)[C@@H]1CC[C@]2(C(=O)OCCCBr)CC[C@]3(C)[C@H](C[C@@H](O)[C@@H]4[C@@]5(C)C(CC(=O)OC)OC(C)(C)C5CC[C@]43C)[C@@H]12 (stereo not given in full)	4.39	4.54	4.32	4.15	4.01
C=C(C)[C@@H]1CC[C@]2(C(=O)OCCCCCCCCCCn3ccnc3C)CC[C@]3(C)[C@H](C[C@@H](O)[C@@H]4[C@@]5(C)C(CC(=O)OC)OC(C)(C)C5CC[C@]43C)[C@@H]12 (stereo not given in full)	4.71	5.31	4.99	5.10	4.71
C=C(C)[C@@H]1CC[C@]2(C(=O)OCCCCBr)CC[C@]3(C)[C@H](C[C@@H](O)[C@@H]4[C@@]5(C)C(CC(=O)OC)OC(C)(C)C5CC[C@]43C)[C@@H]12 (stereo not given in full)	4.34	4.56	4.27	4.14	4.09
C=C(C)[C@@H]1CC[C@]2(C(=O)OCCCCCn3cncn3)CC[C@]3(C)[C@H](C[C@H]4OC(=O)C[C@@H](O)[C@]5(C)[C@@H]4[C@@]3(C)CC[C@H]5C(=C)C)[C@@H]12	4.73	4.42	4.26	4.38	3.97
C=C(C)[C@@H]1CC[C@]2(C(=O)OCCCCCCn3ccnc3)CC[C@]3(C)[C@H](C[C@H]4OC(=O)C[C@@H](O)[C@]5(C)[C@@H]4[C@@]3(C)CC[C@H]5C(=C)C)[C@@H]12	4.62	4.84	4.63	4.34	4.33
C=C(C)[C@@H]1CC[C@]2(C(=O)OCCCn3ccnc3)CC[C@]3(C)[C@H](C[C@@H](O)[C@@H]4[C@@]5(C)C(CC(=O)OC)OC(C)(C)C5CC[C@]43C)[C@@H]12 (stereo not given in full)	4.46	4.56	4.45	4.25	4.14
C=C(C)[C@@H]1CC[C@]2(C(=O)OCCCCCCCCCCn3ccnc3C)CC[C@]3(C)[C@H](C[C@H]4OC(=O)C[C@@H](O)[C@]5(C)[C@@H]4[C@@]3(C)CC[C@H]5C(=C)C)[C@@H]12	4.93	5.52	5.06	4.99	4.63
C=C(C)[C@@H]1CC[C@]2(C(=O)OCCCCCn3ccnc3)CC[C@]3(C)[C@H](C[C@H]4OC(=O)C[C@@H](O)[C@]5(C)[C@@H]4[C@@]3(C)CC[C@H]5C(=C)C)[C@@H]12	4.60	4.79	4.93	4.49	4.34
C=C(C)[C@@H]1CC[C@]2(C(=O)OCCCBr)CC[C@]3(C)[C@H](C[C@H]4OC(=O)C[C@@H](O)[C@]5(C)[C@@H]4[C@@]3(C)CC[C@H]5C(=C)C)[C@@H]12	3.87	< 3.70	3.96	< 3.70	< 3.70
C=C(C)[C@@H]1CC[C@]2(C(=O)OCCCCCCCCCCn3cncn3)CC[C@]3(C)[C@H](C[C@H]4OC(=O)C[C@@H](O)[C@]5(C)[C@@H]4[C@@]3(C)CC[C@H]5C(=C)C)[C@@H]12	4.53	4.84	4.70	4.44	4.33
C=C(C)[C@@H]1CC[C@]2(C(=O)OCCCCCCBr)CC[C@]3(C)[C@H](C[C@@H](O)[C@@H]4[C@@]5(C)C(CC(=O)OC)OC(C)(C)C5CC[C@]43C)[C@@H]12 (stereo not given in full)	4.34	4.65	4.54	4.43	4.14
